Active and inactive are the calls of the source. The calls are words filed in the database; no cut-off is given here. Peptide text beside a SMILES is read from it.
What was measured:
Mus musculus [1] = experiment: Anti-colitis activity against DSS-induced acute colitis in C57BL/6 mouse model assessed as […] in IL-6 mRNA level at 0.5 to 1 mg/kg, ip daily for 7 days by RT-qPCR analysis; format: functional, organism-based; details: dose 0.5-1 mg/kg, time 7.0 day
Mus musculus [2] = experiment: Anti-colitis activity against DSS-induced acute colitis in C57BL/6 mouse model assessed as […] in IFN-gamma mRNA level at 0.5 to 1 mg/kg, ip daily for 7 days by RT-qPCR analysis; format: functional, organism-based; details: dose 0.5-1 mg/kg, time 7.0 day
Mus musculus [3] = experiment: Anti-colitis activity against DSS-induced acute colitis in C57BL/6 mouse model assessed as protection of body weight loss at 0.5 to 1 mg/kg, ip daily for 7 days; format: functional, organism-based; details: dose 0.5-1 mg/kg, time 7.0 day
RAW264.7 [4] = experiment: Antiinflammatory activity in LPS-stimulated mouse RAW264.7 cells assessed as inhibition of p65 phosphorylation incubated for 3 hrs by Western blot analysis; format: functional, cell-based; details: dose 25-100 µM
Mus musculus [5] = experiment: Anti-colitis activity against DSS-induced acute colitis in C57BL/6 mouse model assessed as reduction in goblet cell depletion in colon at 0.5 to 1 mg/kg, ip daily for 11 days by H and E staining based analysis; format: functional, organism-based; details: dose 0.5-1 mg/kg, time 11.0 day
[6] = target: T1, Tumor necrosis factor receptor superfamily member 1B (Homo sapiens) (UniProt P20333); experiment: Inhibition of TNF-alpha (unknown origin) binding to TNFR2 by SPR analysis
T1 sequence (whole entry): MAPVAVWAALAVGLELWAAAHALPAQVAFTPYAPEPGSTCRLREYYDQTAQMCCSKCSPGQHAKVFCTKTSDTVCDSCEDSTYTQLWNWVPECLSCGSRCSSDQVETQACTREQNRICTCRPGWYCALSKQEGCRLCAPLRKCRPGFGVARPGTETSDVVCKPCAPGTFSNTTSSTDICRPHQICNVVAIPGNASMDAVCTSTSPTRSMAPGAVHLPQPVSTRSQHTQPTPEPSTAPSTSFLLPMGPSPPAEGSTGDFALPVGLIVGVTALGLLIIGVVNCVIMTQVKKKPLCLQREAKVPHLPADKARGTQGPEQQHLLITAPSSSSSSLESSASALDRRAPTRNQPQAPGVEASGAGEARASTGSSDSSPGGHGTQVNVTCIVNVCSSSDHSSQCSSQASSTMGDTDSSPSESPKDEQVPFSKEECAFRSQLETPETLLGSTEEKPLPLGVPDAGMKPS

L929 = experiment: Cytotoxicity against mouse L929 cells upto 1000 uM; format: toxicity, cell-based; details: l929, 1000 µM
BMDM [7] = experiment: Antiinflammatory activity in LPS-stimulated mouse BMDM cells assessed as inhibition of NF-kappaB signalling pathway incubated for 3 hrs by Western blot analysis; format: functional, cell-based; details: dose 25-100 µM
Mus musculus [8] = experiment: Anti-colitis activity against DSS-induced acute colitis in C57BL/6 mouse model assessed as reduction in granulocyte infiltration in colon at 0.5 to 1 mg/kg, ip daily for 11 days by H and E staining based analysis; format: functional, organism-based; details: dose 0.5-1 mg/kg, time 11.0 day
RAW264.7 [9] = experiment: Antiinflammatory activity in LPS-stimulated mouse RAW264.7 cells assessed as inhibition of IkappaBalpha phosphorylation incubated for 3 hrs by Western blot analysis; format: functional, cell-based; details: dose 25-100 µM
Tumor necrosis factor [10] = target: T2, Tumor necrosis factor (Homo sapiens, UniProt P01375); experiment: Binding affinity to recombinant TNF-alpha (unknown origin) assessed as dissociation constant incubated for 10 mins by MST assay
Mus musculus [11] = experiment: Antiinflammatory activity against DSS-induced acute colitis in C57BL/6 mouse model assessed as decrease in ERK1/2 phosphorylation in colon tissue administered intraperitoneally daily for 7 days by Western blot analysis; format: functional, organism-based; details: dose 0.5-1 mg/kg, route ip, time 7.0 day
RAW264.7 [12] = experiment: Antiinflammatory activity in mouse RAW264.7 cells assessed as decrease in LPS-stimulated IFN-gamma protein expression incubated for 3 hrs by flow cytometry; format: functional, cell-based; details: dose 25-100 µM
RAW264.7 [13] = experiment: Antiinflammatory activity in mouse RAW264.7 cells assessed as decrease in LPS-stimulated TNF-alpha mRNA level at 25 to 100 uM incubated for 3 hrs by RT-qPCR analysis; format: functional, cell-based; details: dose 25-100 µM
Tumor necrosis factor [14] = target: T2, Tumor necrosis factor; experiment: Binding affinity to TNF-alpha (unknown origin) assessed as dissociation constant by SPR analysis
Mus musculus [15] = experiment: Antiinflammatory activity against DSS-induced acute colitis in C57BL/6 mouse model assessed as decrease in IkappaBalpha phosphorylation in colon tissue administered intraperitoneally daily for 7 days by Western blot analysis; format: functional, organism-based; details: dose 0.5-1 mg/kg, route ip, time 7.0 day
BMDM [16] = experiment: Antiinflammatory activity in mouse BMDM cells assessed as decrease in LPS-stimulated IL-6 mRNA level incubated for 3 hrs by RT-qPCR analysis; format: functional, cell-based; details: dose 25-100 µM
Mus musculus [17] = experiment: Anti-colitis activity against DSS-induced acute colitis in C57BL/6 mouse model assessed as increase in body weight value at 1 mg/kg, ip daily for 7 days; format: functional; details: time 7 day
[18] = target: T3, Tumor necrosis factor receptor superfamily member 1A (Homo sapiens) (UniProt P19438); experiment: Inhibition of TNF-alpha (unknown origin) binding to TNFR1 by SPR analysis
T3 sequence (whole entry): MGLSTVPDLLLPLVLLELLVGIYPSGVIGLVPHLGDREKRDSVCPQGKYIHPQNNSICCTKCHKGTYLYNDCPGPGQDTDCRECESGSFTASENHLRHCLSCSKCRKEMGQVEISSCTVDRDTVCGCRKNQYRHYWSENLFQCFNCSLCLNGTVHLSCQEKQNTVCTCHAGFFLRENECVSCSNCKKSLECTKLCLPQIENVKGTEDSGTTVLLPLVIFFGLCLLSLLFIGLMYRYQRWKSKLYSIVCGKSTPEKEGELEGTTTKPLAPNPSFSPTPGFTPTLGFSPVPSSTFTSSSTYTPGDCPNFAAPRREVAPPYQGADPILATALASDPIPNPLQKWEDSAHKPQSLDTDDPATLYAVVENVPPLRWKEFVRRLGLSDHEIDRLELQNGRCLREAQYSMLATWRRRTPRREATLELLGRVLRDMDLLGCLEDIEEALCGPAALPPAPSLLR

Mus musculus [19] = experiment: Anti-colitis activity against DSS-induced acute colitis in C57BL/6 mouse model assessed as reduction in colonic epithelial disruption at 0.5 to 1 mg/kg, ip daily for 11 days by H and E staining based analysis; format: functional, organism-based; details: dose 0.5-1 mg/kg, time 11.0 day
RAW264.7 [20] = experiment: Antiinflammatory activity in mouse RAW264.7 cells assessed as decrease in LPS-stimulated IL-6 protein expression incubated for 3 hrs by flow cytometry; format: functional, cell-based; details: dose 25-100 µM
RAW264.7 [21] = experiment: Antiinflammatory activity in mouse RAW264.7 cells assessed as decrease in LPS-stimulated IL-1beta mRNA level incubated for 3 hrs by RT-qPCR analysis; format: functional, cell-based; details: dose 25-100 µM
RAW264.7 [22] = experiment: Disruption of NF-kappaB/p65 nuclear import in LPS-stimulated mouse RAW264.7 cells preincubated for 30 mins followed by LPS stimulation measured after 3 hrs by immunofluorescence based microscopy; format: functional, cell-based
Mus musculus [23] = experiment: Anti-colitis activity against DSS-induced acute colitis in C57BL/6 mouse model assessed as […] in IL-1beta mRNA level at 0.5 to 1 mg/kg, ip daily for 7 days by RT-qPCR analysis; format: functional, organism-based; details: dose 0.5-1 mg/kg, time 7.0 day
BMDM [24] = experiment: Antiinflammatory activity in LPS-stimulated mouse BMDM cells assessed as inhibition of MAPK signalling pathway incubated for 3 hrs by Western blot analysis; format: functional, cell-based; details: dose 25-100 µM
Mus musculus [25] = experiment: Antiinflammatory activity against DSS-induced acute colitis in C57BL/6 mouse model assessed as decrease in p65 phosphorylation in colon tissue administered intraperitoneally daily for 7 days by Western blot analysis; format: functional, organism-based; details: dose 0.5-1 mg/kg, route ip, time 7.0 day

T2 sequence (P01375 whole entry): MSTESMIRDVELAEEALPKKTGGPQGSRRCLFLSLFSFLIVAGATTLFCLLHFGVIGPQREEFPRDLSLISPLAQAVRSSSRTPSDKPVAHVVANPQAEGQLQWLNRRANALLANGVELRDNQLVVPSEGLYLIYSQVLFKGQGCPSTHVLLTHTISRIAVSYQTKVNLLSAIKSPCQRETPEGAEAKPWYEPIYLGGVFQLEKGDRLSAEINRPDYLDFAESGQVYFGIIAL

Compound: C[C@H](N)C(=O)N[C@@H](CS)C(=O)N[C@@H](Cc1cnc[nH]1)C(=O)N[C@@H](C)C(=O)N[C@@H](Cc1c[nH]c2ccccc12)C(=O)N[C@@H](C)C(=O)N1CCC[C@H]1C(=O)N[C@H](C(=O)N[C@@H](CCCNC(=N)N)C(=O)O)[C@@H](C)O (H-ACHAWAPTR-OH)
- Activity (Mus musculus [1]): Active
- Activity (Mus musculus [2]): Active
- Activity (Mus musculus [3]): Active
- Activity (RAW264.7 [4]): Dose-Dependent Effect
- Activity (Mus musculus [5]): Active
- inhibition [6]: Active
- Activity (L929): Non-Toxic
- Activity (BMDM [7]): Dose-Dependent Effect
- Activity (Mus musculus [8]): Active
- Activity (RAW264.7 [9]): Dose-Dependent Effect
- Kd (Tumor necrosis factor [10]): 5.14 µM
- Activity (Mus musculus [11]): Dose-Dependent Effect
- Activity (RAW264.7 [12]): Dose-Dependent Effect
- Activity (RAW264.7 [13]): Dose-Dependent Effect
- Kd (Tumor necrosis factor [14]): 6 µM
- Activity (Mus musculus [15]): Dose-Dependent Effect
- Activity (BMDM [16]): Dose-Dependent Effect
- Activity (Mus musculus [17]): 0.24
- inhibition [18]: Active
- Activity (Mus musculus [19]): Active
- Activity (RAW264.7 [20]): Dose-Dependent Effect
- Activity (RAW264.7 [21]): Active
- Activity (RAW264.7 [22]): Dose-Dependent Effect
- Activity (Mus musculus [23]): Active
- Activity (BMDM [24]): Dose-Dependent Effect
- Activity (Mus musculus [25]): Dose-Dependent Effect
